Results from BindingDB's records for doi:10.1021/acsmedchemlett.8b00379 (Bristol-Myers Squibb Research and Development, 2018).

Assays:
[1] = Inhibition of HCV genotype 1a NS5B RNA dependent RNA polymerase infected in human HuH7 replicon cells after 3 days by luciferase reporter gene assay
[2] = Inhibition of HCV genotype 1b NS5B RNA dependent RNA polymerase infected in human HuH7 replicon cells after 3 days by luciferase reporter gene assay
[3] = Inhibition of HCV genotype 2a JFH1 NS5B RNA dependent RNA polymerase infected in human HuH7 replicon cells after 3 days by luciferase reporter gene assay
[4] = Inhibition of HCV genotype 1b NS5B RNA dependent RNA polymerase C316N mutant infected in human HuH7 replicon cells after 3 days by luciferase reporter gene assay

| Structure (SMILES) | EC50 [1] [nM] | EC50 [2] [nM] | EC50 [3] [nM] | EC50 [4] [nM] |
| --- | --- | --- | --- | --- |
| CCNc1cc2oc(-c3ccc(F)cc3)c(C(=O)NC)c2cc1-c1ccc(OC)c(C(=O)NC2(c3ncccn3)CC2)c1 | 2.3 | 1.2 | 12 | 3.6 |
| CCN(C(=O)C(F)(F)F)c1cc2oc(-c3ccc(F)cc3)c(C(=O)NC)c2cc1-c1ccc(OC)c(C(=O)NC2(c3ncccn3)CC2)c1 | – | – | 20 | – |
| CNC(=O)c1c(-c2ccc(F)cc2)oc2ccc(-c3cccc(C(=O)NC4(c5ccccn5)CC4)c3)cc12 | 36 | 3.8 | 515 | 75 |
| CNC(=O)c1c(-c2ccc(F)cc2)oc2cc(N(CCO)S(C)(=O)=O)c(-c3cccc(C(=O)NC4(c5ccccn5)CC4)c3)cc12 | 35 | 52 | 22 | 385 |
| CNC(=O)c1c(-c2ccc(F)cc2)oc2cc(N(CCO)S(C)(=O)=O)c(-c3cccc(C(=O)NC4(c5ccccc5)CC4)c3)cc12 | 5.7 | 6.2 | 8.6 | 64 |
| CCN(c1cc2oc(-c3ccc(F)cc3)c(C(=O)NC)c2cc1-c1cccc(C(=O)NC2(c3ncccn3)CC2)c1)S(C)(=O)=O | 7.7 | 8.8 | 5.4 | 44 |
| CCN(c1cc2oc(-c3ccc(F)cc3)c(C(=O)NC)c2cc1-c1ccc(OC)c(C(=O)NC2(c3ncccn3)CC2)c1)S(C)(=O)=O | – | – | 13 | – |
| CCN(C(=O)OC)c1cc2oc(-c3ccc(F)cc3)c(C(=O)NC)c2cc1-c1ccc(OC)c(C(=O)NC2(c3ncccn3)CC2)c1 | – | – | 15 | – |
| CCN(C(C)=O)c1cc2oc(-c3ccc(F)cc3)c(C(=O)NC)c2cc1-c1ccc(OC)c(C(=O)NC2(c3ncccn3)CC2)c1 | – | – | 35 | – |
| CCN(c1cc2oc(-c3ccc(F)cc3)c(C(=O)NC)c2cc1-c1cc(Cl)c(OC)c(C(=O)NC2(c3ncccn3)CC2)c1)S(C)(=O)=O | – | – | 6.6 | – |
| CCN(c1cc2oc(-c3ccc(F)cc3)c(C(=O)NC)c2cc1-c1cc(F)c(F)c(C(=O)NC2(c3ncccn3)CC2)c1)S(C)(=O)=O | – | – | 9 | – |
| CCN(c1cc2oc(-c3ccc(F)cc3)c(C(=O)NC)c2cc1-c1cc(C)c(OC)c(C(=O)NC2(c3ncccn3)CC2)c1)S(C)(=O)=O | – | – | 16 | – |
| CCN(C(=O)N(C)C)c1cc2oc(-c3ccc(F)cc3)c(C(=O)NC)c2cc1-c1ccc(OC)c(C(=O)NC2(c3ncccn3)CC2)c1 | – | – | 165 | – |
| CCN(c1cc2oc(-c3ccc(F)cc3)c(C(=O)NC)c2cc1-c1cc(F)c(OC)c(C(=O)NC2(c3ncccn3)CC2)c1)S(C)(=O)=O | – | – | 8.8 | – |
